US20200239597A1, “AN ANTI-APOPTOTIC FUNCTION OF PKM2 AND INTRACELLULARLY EXPRESSED SCFV ANTIBODIES” (La Jolla Institute for Allergy and Immunology, priority 2017, published 2020)

B1: monovalent scFv 5 produced as recombinant protein in E. coli (scFv)
scFv: MAQVQLVETGPGLVKPSETLSLRCTVSGGSFDNYYWNWIRQPPGKGLEYIGYVFPSTGATNYNPSLGSRVTISLDTSKNQFSLTLTSVTTADTAIYYCVRSGHDLWTGSTWFDPWGQWTTVTVSSGGGGSGGGGSGGGGSEIVLTQSPGTLSLSPGERATLSCRASQSVSSSYLAWYQQKPGQAPRLLIYGASSRATGIPDRFSGSGSGTDFTLTISRLEPEDIAVYYCQQRSNWPRTFGQGTKVEIKRGLGGLASVDYKDDDDK
notes: also called purified scFv 5; recombinant scFv 5
B2: Clone 7: independent scFv isolate with DNA sequence identical to scFv 5 (protein)
scFv: B1 scFv
B3: IB12: intrabody clone (scFv) that pulls down PKM2, SEQ ID NO: 1 (protein)
scFv: MAQVQLVQSGGGLVKPGGSLRLSCTASGFTFSTYWMHWFRQAPGKGLLWVSRINPDGSATIYADSVKGRFTISRDNAKNSLYLQMNSLRDEDTAVYYCARGHPLSGYPGYFDYWGQGTLVTVSSGGGGSGGGGSGVADPRLCSLSRLPSLHLLEHQQSHLHFTSGINVGAYRIYWYQQKPGSPPQFLLRYKSDSDKQQGSGVPSRFSGSRDASANAGILLISGLRSEDEADYYCAIWHSSAWVFGGGTKLTVLWGSGLASVDYKDDDDK
modifications: Artificial intrabody clone 12

What was measured:
WT PKM2 [1] = molecular target: T1, WT PKM2 (Homo sapiens, UniProt P14618); assay: Pyruvate kinase assay (Kinase-Glo Plus), WT PKM2; format: biochemical; settings: PKM2 at 50 nM; ADP and PEP as substrates
T1 construct: His (N); made in house; host or cells: Escherichia coli BL21(DE3)
Protocol: Activity was measured by Kinase-Glo® Plus Luminescent Kinase Assay kit (promega), using ADP and PEP as substrates), with PKM2 at 50 nM. Shown are values with the basal activity of PKM2 alone subtracted out.
Pyruvate kinase activity was measured by using Kinase-Glo® Plus Luminescent Kinase Assay kit (Promega). 50-100 nM of purified WT or mutant PKM2 was added in 100 μl assay buffer containing 50 mM Tris pH7.5, 100 mM KCl, 10 mM MgCl2, 200 μM PEP, 200 μM ADP, and 3% DMSO. After a 15-min incubation, Kinase-Glo Plus™ reagent (Promega Corporation, Madison, Wis., USA) was added, according to the manufacturer's instructions. In some cases, 0-40 μM fructose 1,6-bisphosphate (FBP) and 0-150 nM scFv 5 were added.

WT PKM2 [2] = molecular target: T1, WT PKM2; assay: Blue native gel electrophoresis of recombinant proteins, WT PKM2; format: binding; settings: blue native gel
Protocol: Left: A monovalent form of scFv 5, produced in E. coli, induced tetramer formation in WT PKM2 along with a bandshift whose magnitude was dependent on the input amount of scFv 5. […] Reaction volume was 20 μl.
(§1) Because glucose metabolism can influence cell survival (Fulda and Debatin, 2007; Moley and Mueckler, 2000; Munoz-Pinedo et al., 2012), The present inventors asked whether IB5 could rescue cells simply through stimulating PKM2's glycolytic activity. First, to analyze the antibody's interaction with PKM2, the present inventors produced monovalent scFv 5 and PIKM2 as recombinant proteins in E. coli and analyzed mixtures of these proteins, by blue native gel electrophoresis (FIG. 3A).

PKM2 (K270M) = molecular target: T2, PKM2 (K270M) (Homo sapiens, UniProt P14618, K270M); assay: Blue native gel electrophoresis, PKM2 (K270M); format: binding; settings: not shown
T2 construct: His (N); made in house; host or cells: Escherichia coli BL21(DE3)
Description: To begin to define the aspects of PKM2 function required for the IB5-induced anti-apoptotic effect, the present inventors reconstituted PKM2-null MEFs with WT or mutant forms of PKM2. The present inventors first analyzed the K270M mutation, reported to be catalytically dead (Bollenbach et al., 1999; Dombrauckas et al., 2005; Luo et al., 2011).

293T cells = assay: Clonogenic survival assay after BimS transfection, 293T cells; format: cell-based, human; set-up: protection of cells from BimS-induced death by the compound alone: dose or concentration left out as unconfirmed; settings: DASA-58 not shown; for effect on the pro-survival effect of IB5 expression: 293T cells cultured in the presence of the compound; for protection of cells from BimS-induced death by the compound alone: without IB5
Protocol: Control 293T or IB5-expressing cells were incubated with or without 27 µg/ml TEPP-46 for 3 h, then transfected with BimS cDNA in a further 24-h incubation also including TEPP-46 or vehicle. The plates were fixed and stained with crystal violet after 1 week. The total area of colonies (a measure of the total mass of proliferating cells) formed in each well from were quantified using ImageJ software; mean±SEM are shown from 3 independent experiments.
Cell viability was measured with a Countess™ Automated Cell Counter (Invitrogen) using trypan blue. For the clonogenic survival assay, 293T or MEFs cells were seeded in 6-well plates at 1×10^5 cells/well in a 2-ml volume, transfected with BimS cDNA and incubated for 24 h. Afterwards, the medium was replaced and the cells cultured for 3-4 days. Thereafter, the plates were rinsed with PBS and fixed and stained with a solution containing crystal violet (0.5% w/v) and glutaraldehyde (6% v/v) as described (Franken et al., 2006).

Bcl-2 family proteins = assay: Immunoblots of Bcl-2 family proteins; format: cell-based, human; settings: alone or in combination; TEPP-46 27 μM
Protocol: Levels of several Bcl-2 family proteins were unchanged following IB5 expression or incubation with TEPP-46, or both. Cell lysates from 293T cells infected with and without IB5 and incubated with and without TEPP-46 (27 μM) were separated on SDS-12% polyacrylamide gels. Bcl-2 family proteins were detected by immunoblotting. The bands were quantified using ImageJ and normalized to the control cell lysate on the leftmost lane.
293T cells were washed with PBS and lysed with PBS containing 1% NP-40. Protein concentration was determined using Pierce™ BCA reagent (ThermoFisher; 23221, 23224). 35 μg protein was loaded in each lane of 12% SDS-PAGE gels. Proteins were transferred to nitrocellulose membrane and immunoblotted with the following primary antibodies: anti-Bax antibody (Santa Cruz N20), anti-Bak antibody (Cell Signaling 3814), anti-Bid antibody (R&D Systems AF860), anti-Bim antibody (Sigma B7929), anti-Puma antibody (Cell Signaling 4976), anti-Bcl-2 antibody (Abcam 32124), anti-Bcl-xL antibody (Cell Signaling 2764) and anti-Mcl-1 (Santa Cruz S19) at 1:1000 dilution. The secondary anti-rabbit and mouse antibodies, conjugated with HRP, were obtained from Santa Cruz and were used at 1:2000 dilution. The luminescence signal was detected using ECL reagent (ThermoFisher 32106).

recombinant PKM1 = molecular target: T3, recombinant PKM1 (UniProt P14618-2 1-531); assay: in vitro experiments with recombinant proteins (blue native gel bandshift; scFv 5 failed to shift PKM1)
T3 construct: Ran as a constitutive tetramer; also called PIKM1; M1 isoform of pyruvate kinase
Description: as §1, with “3A). […] Thus, the intrabody bound directly to PKM2, promoting its stable tetramerization, and moreover, higher input ratios of scFv:PKIM2 produced increased binding stoichiometry.” for “3A).”

[3] = molecular target: T4, pyruvate kinase M2 (PKM2) (Homo sapiens, UniProt P14618); assay: Target protein immunoprecipitation (FLAG pull-down, mass spectrometry, immunoblot); format: binding; settings: Triton X-100 extracts of 293T cells, anti-FLAG beads
T4 construct: some intrabodies precipitated specific cellular proteins; endogenous in cells; host or cells: HEK293T (293T)
Protocol: FIG. 1 C is a photograph of a non-limiting SDS-PAGE gel with silver stain from an immunoprecipitation assay using antibodies encoded by DNA sequences isolated from FIG. 1B. […] Intrabodies that rescued cells from BimS-induced death were chosen for pull-down analysis as described in Methods. Left panel: Triton™-X-100 (1%) cell extracts were incubated with anti-FLAG beads, then proteins eluted with 3×FLAG peptide and separated by SDS-PAGE with silver stain. Specific bands are marked with dots; some bands (e.g. at 37 and 70 kD) are nonspecific. […] The bands near 25 kD are the scFv polypeptides, whose expression levels varied.
Flag-tagged intrabody was introduced along with a tandem Strep-tag by PCR into the same lentiviral vector used for selection. 293T cells infected with the intrabody lentivirus were incubated at 30° C. for 72 h as described above. After washing with cold PBS, 5×10^8 cells were lysed for 15 minutes on ice in lysis buffer (50 mM Tris HCl, pH 7.4, 150 mM NaCl, 1 mM EDTA, 1% Triton™ X-100). Cell lysates were clarified by centrifugation for 15 minutes at 4° C. at 16,000×g. The total protein content of the soluble fraction was quantified using the BCA assay. For pull-down experiments, 10 mg of protein lysate was incubated with 200 al of EZview™ Red anti-FLAG® M2 Affini-ty Gel (Sigma-Aldrich) for 2 h at 4° C. Beads were washed 3 times in wash buffer (50 mM Tris HCl, pH 7.4, 150 mM NaCl, 1 mM EDTA, 0.1% Triton X-100). Elution was performed under native conditions by competition with 3×FLAG peptide following the manufacturer's protocol. Eluates were used for the second step purification using Strep-Tactin Superflow Plus™ [Qiagen], following the manufacturer's instructions. The final two-step purified protein was used for SDS-PAGE analysis. Bands of interest were cut out from the gel and subjected to in-gel digestion with trypsin (Promega, Fitchburg, Wis., USA) followed by MALDI TOF/TOF mass spectrometry analysis (Biomolecular and Proteomics Mass Spectrometry Facility, University of California at San Diego).

T1 sequence (P14618 whole entry): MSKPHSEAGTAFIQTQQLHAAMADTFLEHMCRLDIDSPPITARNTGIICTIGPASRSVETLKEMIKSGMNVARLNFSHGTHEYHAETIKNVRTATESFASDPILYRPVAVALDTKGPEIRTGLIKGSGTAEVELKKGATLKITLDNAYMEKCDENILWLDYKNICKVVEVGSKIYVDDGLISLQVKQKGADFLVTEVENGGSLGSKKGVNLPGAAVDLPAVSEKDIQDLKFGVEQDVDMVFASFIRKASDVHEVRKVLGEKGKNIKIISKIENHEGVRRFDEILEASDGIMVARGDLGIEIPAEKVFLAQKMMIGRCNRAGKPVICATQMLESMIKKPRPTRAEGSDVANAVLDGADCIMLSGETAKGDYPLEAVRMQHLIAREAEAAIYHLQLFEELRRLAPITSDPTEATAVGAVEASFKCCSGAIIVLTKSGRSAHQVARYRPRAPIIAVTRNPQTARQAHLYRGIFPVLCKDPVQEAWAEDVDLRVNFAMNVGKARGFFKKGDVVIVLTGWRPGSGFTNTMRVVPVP
T4 sequence (P14618 whole entry): as above
T2 sequence (P14618 whole entry K270M): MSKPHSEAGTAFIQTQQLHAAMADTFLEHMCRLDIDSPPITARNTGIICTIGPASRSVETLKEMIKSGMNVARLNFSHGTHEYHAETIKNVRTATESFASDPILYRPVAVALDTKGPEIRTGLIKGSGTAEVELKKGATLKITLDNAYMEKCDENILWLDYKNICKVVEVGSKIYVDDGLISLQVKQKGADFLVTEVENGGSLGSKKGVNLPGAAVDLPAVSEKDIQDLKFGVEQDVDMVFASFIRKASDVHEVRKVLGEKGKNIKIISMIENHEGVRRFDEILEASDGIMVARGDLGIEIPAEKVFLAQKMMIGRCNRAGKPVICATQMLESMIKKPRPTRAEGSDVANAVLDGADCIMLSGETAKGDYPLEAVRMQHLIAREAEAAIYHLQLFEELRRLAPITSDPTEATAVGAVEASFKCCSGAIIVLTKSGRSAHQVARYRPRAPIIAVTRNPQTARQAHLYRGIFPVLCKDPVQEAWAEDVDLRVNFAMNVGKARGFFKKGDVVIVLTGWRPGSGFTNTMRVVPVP
T3 sequence (P14618 other isoform, or with tags, fused parts or gaps): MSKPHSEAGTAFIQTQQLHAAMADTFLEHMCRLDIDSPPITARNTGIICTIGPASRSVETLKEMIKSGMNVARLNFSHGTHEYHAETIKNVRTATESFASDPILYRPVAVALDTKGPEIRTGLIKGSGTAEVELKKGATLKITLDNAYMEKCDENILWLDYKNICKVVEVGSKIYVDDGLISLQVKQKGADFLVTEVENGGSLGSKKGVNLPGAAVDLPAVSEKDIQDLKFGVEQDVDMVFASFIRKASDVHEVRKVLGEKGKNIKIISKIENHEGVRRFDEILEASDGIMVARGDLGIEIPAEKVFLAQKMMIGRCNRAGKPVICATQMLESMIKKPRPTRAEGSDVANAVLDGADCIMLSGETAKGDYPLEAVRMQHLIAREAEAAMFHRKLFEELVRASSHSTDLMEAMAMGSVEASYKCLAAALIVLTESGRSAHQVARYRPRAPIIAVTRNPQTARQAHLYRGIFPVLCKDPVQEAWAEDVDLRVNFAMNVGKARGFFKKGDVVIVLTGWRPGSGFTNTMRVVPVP

Row | Molecule | effect on the pro-survival effect of IB5 expression (293T cells) | protection of cells from BimS-induced death by the compound alone (293T cells) | protein pulled down from cell extracts [3] | also measured
1 | O=C(COP(=O)(O)O)[C@@H](O)[C@H](O)[C@H](O)COP(=O)(O)O [FBP, fructose 1,6-bisphosphate, reference compound] | – | – | – | glycolytic (pyruvate kinase) activity of WT PKM2 (WT PKM2 [1]): Stimulation of PKM2 activity; tetramer formation of WT PKM2 (WT PKM2 [2]): produced the tetramer form; stable tetramer formation of PKM2 (K270M) (PKM2 (K270M)): prevented the protein from forming stable tetramers
2 | Cn1c2cc([S+](C)[O-])sc2c2cnn(Cc3cccc(N)c3)c(=O)c21 (centres unmarked) [TEPP-46] | enhanced the pro-survival effect of IB5 expression to a modest but statistically significant extent | did not protect cells | – | levels of Bax, Bak, Bid, Bim, Puma, Bcl-2, Bcl-xL and Mcl-1 (Bcl-2 family proteins): failed to change the mitochondrial levels
3 | Nc1cccc(S(=O)(=O)N2CCCN(S(=O)(=O)c3ccc4c(c3)OCCO4)CC2)c1 [DASA-58] | enhanced the pro-survival effect of IB5 expression to a modest but statistically significant extent | did not protect cells | – | –
4 | B1 | – | – | – | binding result (recombinant PKM1): no binding
5 | B2 | – | – | pulled down a 55-kD protein now identified as pyruvate kinase M2 | –
6 | B3 | – | – | pulled down a 55-kD protein now identified as pyruvate kinase M2 | –
